Earlier results as cited in patent EP3463364B1, “PYRAZINE DERIVATIVES FOR USE IN THE TREATMENT OF DISEASES ASSOCIATED WITH CELL CYCLE DYSREGULATION” (University of Patras, priority 2016, dated 2017).

Molecular target: T1, Geminin-Cdtl interaction (Homo sapiens, UniProt Q9H211)
T1 sequence (Q9H211 1-546): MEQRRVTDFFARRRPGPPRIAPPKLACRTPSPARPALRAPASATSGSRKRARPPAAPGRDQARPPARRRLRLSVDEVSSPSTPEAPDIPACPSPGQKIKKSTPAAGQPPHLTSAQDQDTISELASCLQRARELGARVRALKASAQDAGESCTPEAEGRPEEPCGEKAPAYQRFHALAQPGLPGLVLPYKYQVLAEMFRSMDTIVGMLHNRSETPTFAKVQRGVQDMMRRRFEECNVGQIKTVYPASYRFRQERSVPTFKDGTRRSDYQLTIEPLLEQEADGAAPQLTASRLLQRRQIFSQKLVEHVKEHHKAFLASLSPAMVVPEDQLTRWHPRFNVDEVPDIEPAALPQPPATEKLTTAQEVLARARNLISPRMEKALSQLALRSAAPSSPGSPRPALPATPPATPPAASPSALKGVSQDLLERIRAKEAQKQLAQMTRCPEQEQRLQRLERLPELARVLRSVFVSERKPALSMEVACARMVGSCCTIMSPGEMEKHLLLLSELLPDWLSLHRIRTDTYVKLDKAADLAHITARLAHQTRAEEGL
Details: in vitro, through binding to the Cdtl licensing factor; literature; cited from earlier work

SMILES	inhibition of the Geminin-Cdtl interaction
COC1=C(OC)C(=O)C(C/C=C(\C)CC/C=C(\C)CC/C=C(\C)CC/C=C(\C)CC/C=C(\C)CC/C=C(\C)CC/C=C(\C)CC/C=C(\C)CC/C=C(\C)CCC=C(C)C)=C(C)C1=O [coenzyme Q10]	inhibit the interaction of the two proteins in vitro
CCCCCCCC/C=C\CCCCCCCC(=O)O [oleic acid (C18:1), oleic acid]	inhibit the interaction of the two proteins in vitro
